Laboratory results as given in US20210100826A1 (UNIVERSITY HOSPITAL CLEVELAND MEDICAL CENTER, priority 2017, published 2021).
Values joined by “and” are separate entries in the source; they are usually repeats but may differ in a detail not shown here. Identical values can stand only once.

Legend:
[1] = target: T1, cloned P2X7 ATP-activated channel (human P2RX7 gene expressed in HEK293 cells) (Homo sapiens, UniProt Q99572); experiment: Electrochemical patch clamp assay of P2X7 receptor activation (agonist mode, QPatch HT); assay type: cell-based; conditions: for Individual Data Points (% Activation): single cells; for decrease in EC50 when compared to BzBz-ATP / decrease in EC50 when compared to native ATP: ratio of EC50 values; for EC50: whole-cell patch clamp, holding voltage −80 mV, room temperature
T1 construct: HEK293 cells were stably transfected with the appropriate ion channel cDNA encoding the pore-forming channel subunit; expressed in transfected cells
T1 sequence (Q99572 1-595): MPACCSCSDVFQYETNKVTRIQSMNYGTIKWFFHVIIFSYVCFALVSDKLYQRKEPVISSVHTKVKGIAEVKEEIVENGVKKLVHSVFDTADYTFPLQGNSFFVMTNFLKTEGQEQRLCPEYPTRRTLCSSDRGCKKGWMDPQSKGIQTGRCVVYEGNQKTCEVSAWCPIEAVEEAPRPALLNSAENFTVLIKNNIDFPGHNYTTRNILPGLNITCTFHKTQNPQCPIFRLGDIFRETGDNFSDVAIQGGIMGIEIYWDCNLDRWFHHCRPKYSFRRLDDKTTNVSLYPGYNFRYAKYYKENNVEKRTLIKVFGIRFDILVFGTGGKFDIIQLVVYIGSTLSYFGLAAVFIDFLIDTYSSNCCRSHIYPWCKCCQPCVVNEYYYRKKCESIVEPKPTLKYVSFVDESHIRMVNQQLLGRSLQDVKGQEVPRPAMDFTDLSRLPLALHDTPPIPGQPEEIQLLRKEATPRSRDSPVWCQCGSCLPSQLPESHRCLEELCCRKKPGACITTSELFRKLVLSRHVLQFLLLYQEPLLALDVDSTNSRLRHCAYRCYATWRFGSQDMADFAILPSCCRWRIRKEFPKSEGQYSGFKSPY

[2] = UV radical generation activity; assay type: physicochemical
[3] = target: T2, P2X7 (Homo sapiens, UniProt Q99572); conditions: stated without test; read-out: EC50 as P2X7 agonist; cited from earlier work
T2 sequence (Q99572 1-595): T1 sequence (Q99572 1-595)

[4] = test system: DMBA/TPA-induced skin papillomas and squamous spindle-cell carcinomas; experiment: Mouse two-step DMBA/TPA skin neoplasia model, local co-treatment with BzBzATP; assay type: in vivo
Protocol: Experiments were performed to test the hypothesis that activation of the P2X7 receptor could inhibit development of epidermal neoplasia. These experiments utilized the mouse two-step DMBA/TPA skin neoplasia model, which involves tumor initiation by local treatment with DMBA, followed by tumor promotion by local treatment with TPA. Agarwal et al, “Inhibitory effect of 18beta-glycyrrhetinic acid on 12-O-tetradecanoyl phorbol-13-acetate-induced cutaneous oxidative, stress and tumor promotion in mice” Redox Rep 10:151-157 (2005); and Guo et al, “Disruption of EphA2 receptor tyrosine kinase leads to increased susceptibility to carcinogenesis in mouse skin” Cancer Res 66:7050-7058 (2006). Mice had their dorsal skin shaved, and DMBA was applied once by topical application onto the shaved dorsal skin. TPA treatment by topical application onto the shaved dorsal skin was started one week later and continued twice a week for 12 weeks.
Animals were divided into three groups: Control mice (n=15) that had their back shaved and were treated only with the vehicle; DMBA/TPA-treated mice (n=15); and DMBA/TPA-treated mice that were co-treated with BzBzATP twice a week from week −2 (i.e. two weeks prior to DMBA) (n=14). All treatments were applied locally on the shaved dorsal skin. Papilloma development was monitored weekly from week 5 to 12 after the DMBA. Endpoints were percent animals with at least one papilloma; number of papilloma per animal; and mean papilloma size (e.g., millimeters of the largest lesion dimension). None of the animals in the control group had developed papillomas.
To evaluate the effects of BzBzATP, changes in skin lesions in the DMBA/TPA and DMBA/TPA+BzBzATP groups were compared relative to the length of treatment. Since formation of papillomas and cancerous lesions was time-related (i.e., for example, a marked cut-off occurs between weeks 13-14; see, FIG. 4A), data were analyzed separately for weeks 0-12 and weeks 14-28.

[5] = week 10, DMBA/TPA+BzBzATP group
[6] = week 12, DMBA/TPA+BzBzATP group
[7] = week 28, DMBA/TPA+BzBzATP group

Molecule	Mean % P2X7 Activation ([1]; Conc 1 μM) [%]	Individual Data Points (% Activation) ([1]; Conc 1 μM)	Mean % P2X7 Activation ([1]; Conc 10 μM) [%]	Individual Data Points (% Activation) ([1]; Conc 10 μM)	Mean % P2X7 Activation ([1]; Conc 100 μM) [%]	Individual Data Points (% Activation) ([1]; Conc 100 μM)	Mean % P2X7 Activation ([1]; Conc 500 μM) [%]	Individual Data Points (% Activation) ([1]; Conc 500 μM)	decrease in EC50 when compared to BzBz-ATP [1] [%]	decrease in EC50 when compared to native ATP [1] [%]	EC50 [1] [µM]	UV radical generation activity [2]	EC50 [3] [µM]	also measured
CCCCCCCCCCCC(=O)O[C@H]1[C@@H](O)[C@H](n2cnc3c(N)ncnc32)O[C@@H]1COP(=O)(O)OP(=O)(O)OP(=O)(O)O [ATP-lauroyl, lauroyl-ATP]	8.1	−2.1% and 26.6% and −0.3%	29.9	45.1% and 18.1% and 26.4%	42.0	38.7% and 64.8% and 22.6%	96.9	98.3% and 124.6% and 67.7%	~350	~580	62.4	low or no UV radical generation activity		EC50 ([1]; listed as lauroyl-ATP): ~62 µM; dissolution in a solution with 0.3% DMSO: not totally dissolved
Nc1ncnc2c1ncn2[C@@H]1O[C@H](COP(=O)(O)OP(=O)(O)OP(=O)(O)O)[C@@H](OC(=O)c2cccc(Oc3ccccc3)c2)[C@H]1O [ATP-(3-phenoxy)benzoyl, 3-phenoxybenzoyl-ATP]	12.3	7.0% and 45.4% and 6.7% and −9.7%	74.7	36.6% and 167.5% and 39.7% and 54.9%	186.3	85.6% and 284.3% and 136.9% and 238.4%	320.8	346.4% and 357.0% and 209.5% and 370.2%	~445	~738	49.1			
Nc1ncnc2c1ncn2[C@@H]1O[C@H](COP(=O)(O)OP(=O)(O)OP(=O)(O)O)[C@@H](OC(=O)/C=C/c2ccccc2)[C@H]1O [cinnamoyl-ATP]												low or no UV radical generation activity		
Nc1ncnc2c1ncn2[C@@H]1O[C@H](COP(=O)(O)OP(=O)(O)OP(=O)(O)O)[C@@H](OC(=O)c2ccccc2)[C@H]1O [3′-O-(Benzoyl) Adenosine-5-Triphosphate, 3′-O-(benzoyl)-adenosine-5-triphosphate]	8.3	15.8% and 9.7% and −0.7%	43.0	65.4% and 42.3% and 21.3%	94.5	102.5% and 82.3% and 98.7%	129.2	148.4% and 129.1% and 110.2%	~910	~1511	24	low or no UV radical generation activity		
Nc1ncnc2c1ncn2[C@@H]1O[C@H](COP(=O)(O)OP(=O)(O)OP(=O)(O)O)[C@@H](O)[C@H]1O [NaATP, adenosine triphosphate, reference compound]											363		~100	Mean % P2X7 Activation ([1]; Conc 300 μM): 40.9%; Mean % P2X7 Activation ([1]; Conc 750 μM): 75.4%
2′,3′-0-(4-benzoylbenzoyl)-adenosine 5′-triphosphate [BzBzATP, reference compound]	0.0	0.1% and 0.0% and −0.2%	6.7	2.2% and 14.9% and 2.9%	16.9	7.2% and 29.6% and 13.8%	100.0	100.0%			218	high degree of UV radical generation activity	~50	P2X7 receptor activation efficacy, comparison in words [1]: slight improvement of receptor activation efficacy; Individual Data Points (% Activation) ([1]; Conc 200 μM): 34.8% and 41.8% and 39.4%; TUNEL staining of papilloma tissue ([4]; biopsy at week 10, basal/parabasal regions): intense TUNEL staining; decrease of the mean number of papillomas per animal ([4]; versus DMBA/TPA group): about 25%; decrease of the mean papilloma size ([4]; versus DMBA/TPA group): about 45%; proportion of living animals with cancerous lesions >200 mm^3 ([4]; versus DMBA/TPA group): differences did not reach statistical significance; proportion of living animals having a papilloma ([4]; week 5, DMBA/TPA+BzBzATP group): 48±12%; animals having at least one papilloma ([4]; week 6, DMBA/TPA+BzBzATP group): 53.8%; papillomas per animal (mean±SEM) [4, 5]: 1.23±0.34; papillomas per living animal (mean±SD) [4, 5]: 1.2±0.4; mean papilloma size per animal (mean±SEM) [4, 6]: 3.46±0.73 mm; mean total papillomas size per animal (mean±SD) [4, 6]: 3.4±1.0 mm; animals that developed at least one skin papilloma ([4]; week 12, DMBA/TPA+BzBzATP group, local on dorsal skin twice a week): 78%; proportion of living animals with cancerous lesions [4, 7]: 43±9%; proportion of living animals with cancerous lesions >10 mm^3 [4, 7]: 16±4%
